Counter-ions that a name gives are not always drawn.
Assays:
PARP1 [1] = biological target: T1, PARP1 (Homo sapiens, UniProt P09874); test: PARP1 fluorescence polarization binding assay; conditions: binding IC50, GST-tagged PARP1 20 nM, PARPi-FL 3 nM
Description: Compounds of the present disclosure were tested in a PARP1 fluorescence polarization binding assay at Pharmaron (Beijing, P.R.China). In this biochemical assay, binding of test compound to recombinant human PARP1 reduces the amount of binding of a fluorescent probe, and consequently reduces the detected level of fluorescence polarization. Test compound stock solutions were prepared in DMSO and then serially diluted into 10 concentrations by 3-fold dilution in a 384-well plate using a TECAN EVO200. 60 nL of each dilution was transferred to the plate using an Echo550 (Labcyte), and then 10 μL 40 nM GST-tagged PARP1 (BPS Bioscience, Cat #80501), diluted in assay buffer (50 mM Tris pH 8.0, 0.001% Triton X-100, 10 mM MgCl2, 150 mM NaCl), was added to the plate. After a centrifugation at 1000 rpm for 1 min, the assay plate was incubated for 30 min at RT. 10 μL 6 nM PARPi-FL (TOCRIS, Cat #6461), diluted using assay buffer, was then added to the plate. The final concentrations of PARP1 and PARPi-FL were 20 nM and 3 nM, respectively, in a total volume of 20 μL. After a centrifugation at 1000 rpm for 1 min, the assay plate was incubated for 4 h at RT. Samples in each well were read using an Envision instrument (Perkin-Elmer; Ex=480 nm Em=FITC FP-P pol 535 nm & FITC FP-S pol 535 nm). Percent inhibition was calculated from mP values using Inhibition (%)=[1−(mPc−mPL)/(mPH−mPL)]×100%, where mPc, mPL, and mPH are the mP values of test compound, Low controls, and High controls, respectively. Binding IC50 values were calculated using XLFit (equation 201: y=A+((B−A)/(1+((x/C)^D))), where A=bottom, B=top, C=IC50, and D=slope) with a floating top and bottom for curves. Binding IC50 values are shown in Table A and are presented in ranges, in which “+++”<100 nM, 100 nM≤“++”<3000 nM, and “+”≥3000 nM.

PARP1 [2] = biological target: T1, PARP1; test: PARP1 biochemical trapping assay (BPS PARPtrap)
Description: Compounds of the present disclosure were tested in a PARP1 biochemical trapping assay at BPS Bioscience (San Diego, CA). PARP1 is known to bind damaged DNA through its DNA-binding domains. Binding to DNA activates PARP1, and in the presence of NAD+, PARP1 ribosylates itself (auto-ribosylation), leading to PARP1 dissociation from the DNA due to the accumulated negative charge of the ribosyl polymer. In the presence of some inhibitors, however, PARP remains bound to the DNA, a phenomenon termed trapping.
The BPS PARPtrap assay kit for PARP1 (BPS Catalog #80584) was used. A series of dilutions of the compounds were prepared with 10% DMSO in water. The final concentration of DMSO was 1% in all reactions. The enzymatic reactions were conducted in duplicates at room temperature in a 96-well plate. The 45 μl reaction mixtures in PARPtrap buffer 1 containing PARP1 fluorescent labelled oligonucleotide duplex, PARP enzyme and the test compound were incubated at room temperature for 10 min. After pre-incubation, the enzymatic reaction was initiated by adding 5 μl of 10×NAD+ solution. The reaction was incubated for 45-60 min at room temperature.
Fluorescence polarization was measured at an excitation of 470 nm and an emission of 518 nm using a Tecan Infinite M1000 microplate reader. The blank value was subtracted from all other values. Fluorescence polarization was analyzed by Tecan Magellan 6 software and wells containing DNA were used as references. The fluorescence polarization data were then evaluated using GraphPad Prism software. The fluorescence polarization in absence of the compound in each data set was defined as 0% activity (FPo), while the fluorescence polarization in the absence of both NAD+ and the compound was defined as 100% activity (FPt). The percent activity in the presence of the compound was calculated according to the equation % activity=[FP−FPo]/[(FPt−FPo)]×100, where FP=the fluorescence polarization in the presence of the compound.
The values of % activity versus a series of compound concentrations were then plotted using non-linear regression analysis of a sigmoidal dose-response curve generated with the equation Y=B+(T−B)/1+10^((LogEC50−X)×Hill Slope), where Y=percent activity, B=minimum percent activity, T=maximum percent activity, X=logarithm of compound and Hill Slope=slope factor or Hill coefficient. The EC50 value was determined by the concentration causing a half-maximal percent activity. EC50 values are shown in Table C and are presented in ranges, in which “+++”<300 nM, 300 nM≤“++”<3000 nM, and “+”≥3000 nM.

[3] = test system: DLD-1 wild-type colorectal adenocarcinoma cells; test: Cell viability assay (Cell Titer-Glo), DLD-1 wild-type; format: cell-based; conditions: Homo sapiens, DLD-1, 168 h, 7 days incubation; for inhibition at 10 µM: read-out: DLD-1 wild-type % inh at 10 μM; for IC50: 50 cells/well
Description: (§1) Compounds of the present disclosure were tested for their effects on the viability of cancer cells. DLD-1 wild-type and DLD-1 BRCA2(−/−) colorectal adenocarcinoma cells, an isogenic pair of cell lines differing in the presence and absence, respectively, of both BRCA2 alleles, were used. The cells were harvested during the logarithmic growth period, counted, and seeded at 50 cells/well for DLD-1 wild-type and 200 cells/well for DLD-1 BRCA2(−/−) in a 384-well cell culture plate. After seeding, cells were incubated at 37° C., 5% CO2 overnight. Cells were treated with serially diluted test compounds at 10 concentrations (e.g., from 1.5 nM-30 μM) for generation of dose response curves, or at a single concentration. The plate was further incubated for another 7 days in a humidified incubator at 37° C. and 5% CO2. Cell viability was assessed by luminescence measurement after addition of Cell Titer-Glo reagent (Promega, Madison, Wis.) according to the manufacturer's instructions. Cell viability IC50 values were calculated using XLFit, equation 201: y=A+((B−A)/(1+((x/C)^D))), where A=bottom, B=top, C=IC50, and D=slope. IC50 values are shown in Table B and are presented in ranges, in which “+++”<300 nM, 300 nM≤“++”<3000 nM, and “+”≥3000 nM. Values for percent inhibition at 10 μM are also shown in Table B and are presented in ranges, in which “***”≥67%, 33%≤“**”<67%, and “*”<33%. Effects of the test compounds on the viability of other cell lines such as MDA-MB-436, MDA-MB-231, SUM149PT, HCC1395, and UWB1.289 are determined in an analogous method.

recombinant human PARP2 = recombinant human PARP2 (Homo sapiens, UniProt Q9UGN5); test: PARP2 fluorescence polarization binding assay; conditions: for IC50: binding IC50, GST-tagged PARP2 20 nM, PARPi-FL 3 nM; for inhibition at 10 µM: read-out: PARP2 % inh at 10 μM
recombinant human PARP2, sequence (Q9UGN5 whole entry): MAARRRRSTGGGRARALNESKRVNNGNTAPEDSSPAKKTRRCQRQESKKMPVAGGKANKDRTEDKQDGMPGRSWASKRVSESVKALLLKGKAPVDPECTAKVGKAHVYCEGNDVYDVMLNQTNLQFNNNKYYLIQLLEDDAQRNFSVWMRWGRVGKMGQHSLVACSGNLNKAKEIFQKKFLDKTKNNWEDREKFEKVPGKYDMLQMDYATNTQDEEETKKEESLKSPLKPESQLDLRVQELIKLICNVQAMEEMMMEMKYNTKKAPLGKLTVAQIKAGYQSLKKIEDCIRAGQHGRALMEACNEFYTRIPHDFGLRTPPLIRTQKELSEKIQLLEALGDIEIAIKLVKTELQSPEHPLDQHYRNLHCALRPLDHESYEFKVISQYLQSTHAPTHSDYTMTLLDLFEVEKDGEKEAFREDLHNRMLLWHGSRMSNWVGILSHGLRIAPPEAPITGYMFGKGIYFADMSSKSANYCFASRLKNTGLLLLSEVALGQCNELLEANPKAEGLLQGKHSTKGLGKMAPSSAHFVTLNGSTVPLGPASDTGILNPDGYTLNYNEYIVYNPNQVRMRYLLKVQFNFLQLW
Description: Compounds of the present disclosure were tested in a PARP2 fluorescence polarization binding assay at Pharmaron (Beijing, P.R. China). In this biochemical assay, binding of test compound to recombinant human PARP2 reduces the amount of binding of a fluorescent probe, and consequently reduces the detected level of fluorescence polarization. Test compound stock solutions were prepared in DMSO and then serially diluted into 10 concentrations by 3-fold dilution in a 384-well plate using a TECAN EVO200. Alternatively, a single concentration was prepared. 60 nL of each dilution was transferred to the plate using an Echo550 (Labcyte), and then 10 μL 40 nM GST-tagged PARP2 (BPS Bioscience, Cat #80502), diluted in assay buffer (50 mM Tris pH 8.0, 0.001% Triton X-100, 10 mM MgCl2, 150 mM NaCl), was added to the plate. After a centrifugation at 1000 rpm for 1 min, the assay plate was incubated for 30 min at RT. 10 μL 6 nM PARPi-FL (TOCRIS, Cat #6461), diluted using assay buffer, was then added to the plate. […] After a centrifugation at 1000 rpm for 1 min, the assay plate was incubated for 4 h at RT. Samples in each well were read using an Envision instrument (Perkin-Elmer; Ex=480 nm Em=FITC FP-P pol 535 nm & FITC FP-S pol 535 nm). […] Binding IC50 values were calculated using XLFit (equation 201: […])^D))), where A=bottom, B=top, C=IC50, and D=slope) with a floating top and bottom for curves.

[4] = test system: DLD-1 BRCA2(−/−) colorectal adenocarcinoma cells; test: Cell viability assay (Cell Titer-Glo), DLD-1 BRCA2(−/−); format: cell-based; conditions: Homo sapiens, DLD-1, 168 h; 7 days incubation, 200 cells/well
Description: as §1

T1 sequence (P09874 whole entry): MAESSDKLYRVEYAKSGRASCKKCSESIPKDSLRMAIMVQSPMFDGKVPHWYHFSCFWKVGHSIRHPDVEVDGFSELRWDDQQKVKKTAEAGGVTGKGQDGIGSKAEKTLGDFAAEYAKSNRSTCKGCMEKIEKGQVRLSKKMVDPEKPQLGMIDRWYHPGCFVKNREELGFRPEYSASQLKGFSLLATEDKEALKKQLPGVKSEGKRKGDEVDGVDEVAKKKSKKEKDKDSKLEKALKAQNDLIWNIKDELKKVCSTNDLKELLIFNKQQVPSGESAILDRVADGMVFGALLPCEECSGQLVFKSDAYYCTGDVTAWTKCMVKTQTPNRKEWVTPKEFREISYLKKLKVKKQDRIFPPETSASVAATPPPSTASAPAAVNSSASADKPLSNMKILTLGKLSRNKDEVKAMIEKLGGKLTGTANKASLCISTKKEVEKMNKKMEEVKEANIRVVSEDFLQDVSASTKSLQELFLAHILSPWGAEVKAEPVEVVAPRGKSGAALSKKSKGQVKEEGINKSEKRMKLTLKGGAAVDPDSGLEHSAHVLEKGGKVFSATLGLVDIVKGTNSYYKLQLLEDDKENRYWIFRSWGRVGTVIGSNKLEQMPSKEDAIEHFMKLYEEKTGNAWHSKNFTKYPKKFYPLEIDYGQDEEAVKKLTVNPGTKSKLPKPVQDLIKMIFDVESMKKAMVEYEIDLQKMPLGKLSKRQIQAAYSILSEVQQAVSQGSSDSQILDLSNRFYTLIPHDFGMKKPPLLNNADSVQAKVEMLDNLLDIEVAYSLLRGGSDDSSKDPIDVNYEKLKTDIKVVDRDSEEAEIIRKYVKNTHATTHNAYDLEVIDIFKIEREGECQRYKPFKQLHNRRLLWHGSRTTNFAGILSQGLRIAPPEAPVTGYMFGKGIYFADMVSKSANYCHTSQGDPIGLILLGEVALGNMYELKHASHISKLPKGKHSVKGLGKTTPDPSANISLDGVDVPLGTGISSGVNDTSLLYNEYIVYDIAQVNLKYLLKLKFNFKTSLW

SMILES | IC50 (PARP1 [1]) [nM] | EC50 (PARP1 [2]) [nM] | inhibition at 10 µM [3] [%] | IC50 [3] [nM] | IC50 (recombinant human PARP2) [nM] | inhibition at 10 µM (recombinant human PARP2) [%] | IC50 [4] [nM]
CCn1c(=O)[nH]c2cc(CN3CCN(c4ccc(C(=O)NC)nc4C)C(=O)C3)sc2c1=O [Compound 334, 5-[4-({3-ethyl-2,4-dioxo-1H-thieno[3,2-d]pyrimidin-6-yl}methyl)-2-oxopiperazin-1-yl]-N,6-dimethylpyridine-2-carboxamide] | 100 to 3000 | > 3000 |  |  |  |  | 
CCn1c(=O)[nH]c2c(F)c(CN3CCN(c4ccc(C(=O)NC)nc4C)CC3)ccc2c1=S [Compound 184, 5-(4-((3-ethyl-8-fluoro-2-oxo-4-thioxo-1,2,3,4-tetrahydroquinazolin-7-yl)methyl)piperazin-1-yl)-N,6-dimethylpicolinamide] | < 100 |  | 33 to 67 | > 3000 | > 3000 | 33 to 67 | < 300
CCN1Cc2ccc(CN3CCN(c4ccc(F)cc4F)CC3)cc2NC1=O [Compound 225, 7-{[4-(2,4-difluorophenyl)piperazin-1-yl]methyl}-3-ethyl-1,4-dihydroquinazolin-2-one] | < 100 |  | < 33 | > 3000 |  | 33 to 67 | > 3000
CCn1c(=O)[nH]c2cc(CN3CCN(c4cnc5c(NC)nccc5c4)CC3)sc2c1=O [Compound 360, 3-ethyl-6-((4-(8-(methylamino)-1,7-naphthyridin-3-yl)piperazin-1-yl)methyl)thieno[3,2-d]pyrimidine-2,4(1H,3H)-dione formate] | < 100 |  | 33 to 67 | > 3000 | > 3000 | 33 to 67 | > 3000
CCn1c(=O)[nH]c2cc(CN3CC4(C3)CN(c3ccc(C(=O)NC)nc3)C4)ccc2c1=O [Compound 100, 5-{6-[(3-ethyl-2,4-dioxo-1,2,3,4-tetrahydroquinazolin-7-yl)methyl]-2,6-diazaspiro[3.3]heptan-2-yl}-N-methylpyridine-2-carboxamide hemiformate] | 100 to 3000 |  | < 33 | > 3000 | > 3000 | 33 to 67 | > 3000
CCn1c(=O)[nH]c2sc(CN3CCN(c4ccc(C(=O)NC)nc4)CC3)cc2c1=O [Compound 60, 5-(4-((3-ethyl-2,4-dioxo-1,2,3,4-tetrahydrothieno[2,3-d]pyrimidin-6-yl)methyl)piperazin-1-yl)-N-methylpicolinamide formate] | 100 to 3000 |  | < 33 |  |  | 33 to 67 | > 3000
CCn1c(=O)[nH]c2cc(CN3CCN(c4ccc(C(=O)NC)nc4C)CC3)c(C#N)cc2c1=S [Compound 505, 5-(4-((6-cyano-3-ethyl-2-oxo-4-thioxo-1,2,3,4-tetrahydroquinazolin-7-yl)methyl)piperazin-1-yl)-N,6-dimethylpicolinamide trifluoroacetate] | < 100 |  | < 33 | > 3000 | > 3000 | 33 to 67 | 300 to 3000
CCn1c(=O)[nH]c2cc(CN3CCN(c4ccc(C(=O)NC)nc4)CC3)ccc2c1=S [Compound 40, 5-(4-((3-ethyl-2-oxo-4-thioxo-1,2,3,4-tetrahydroquinazolin-7-yl)methyl)piperazin-1-yl)-N-methylpicolinamide formate] | < 100 |  | < 33 | > 3000 | > 3000 | 33 to 67 | 300 to 3000
CCn1c(=O)[nH]c2cc(CN3CCN(c4ccc(F)cc4F)CC3)ccc2c1=O [Compound 226, 7-{[4-(2,4-difluorophenyl)piperazin-1-yl]methyl}-3-ethyl-1H-quinazoline-2,4-dione formate] | < 100 |  | < 33 | > 3000 |  | 33 to 67 | > 3000
CCn1c(=O)[nH]c2cc(C=C3CCN(c4ccc(C(=O)NC)nc4C)CC3)ccc2c1=S [Compound 507, 5-(4-((3-ethyl-2-oxo-4-thioxo-1,2,3,4-tetrahydroquinazolin-7-yl)methylene)piperidin-1-yl)-N,6-dimethylpicolinamide] | < 100 |  | > 67 | > 3000 | > 3000 | 33 to 67 | > 3000

Reference: patent US20240132449A1, “HETEROCYCLIC COMPOUNDS AND METHODS OF USE THEREOF” (1cBio, Inc., priority 2022, published 2024)
